Measured values from PMC8784342, “Investigation of sugar binding kinetics of the E. coli sugar/H^+ symporter XylE using solid-supported membrane-based electrophysiology” (The Journal of Biological Chemistry, 2021).
Values joined by “and” are separate entries in the source; they are usually repeats but may differ in a detail not shown here. Identical values can stand only once.

Legend:
[1] = biological target: T1, wt FucP (Escherichia coli, UniProt P11551); assay: SSM-based electrophysiology, proteoliposomes with wt FucP; format: biochemical; details: pH 7.6
T1 construct: made in house; host or cells: E. coli BL21 DE3
T1 sequence (P11551 1-438): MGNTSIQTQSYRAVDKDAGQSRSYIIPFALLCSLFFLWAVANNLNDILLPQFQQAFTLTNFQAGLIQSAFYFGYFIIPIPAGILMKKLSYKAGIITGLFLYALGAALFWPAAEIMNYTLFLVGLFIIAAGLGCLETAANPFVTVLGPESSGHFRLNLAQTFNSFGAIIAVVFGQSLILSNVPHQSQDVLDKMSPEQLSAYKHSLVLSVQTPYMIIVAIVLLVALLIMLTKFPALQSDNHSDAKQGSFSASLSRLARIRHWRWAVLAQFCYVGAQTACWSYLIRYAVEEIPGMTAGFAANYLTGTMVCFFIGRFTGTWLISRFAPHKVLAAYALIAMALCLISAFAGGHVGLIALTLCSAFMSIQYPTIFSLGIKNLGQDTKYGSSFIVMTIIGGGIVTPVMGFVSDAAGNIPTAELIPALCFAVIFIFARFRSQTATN
Procedure: (§1) Reconstitution of purified proteins (2–20 mg/ml) was carried out with E. coli phospholipids (Avanti Polar Lipids, E. coli polar lipid extract). Preformed liposomes (0.2–2 ml, 10 mg/ml) were dissolved in 1% (w/v) n-octyl-β-D-glucoside, and the protein suspension was mixed on ice to a concentration of 0.2 mg protein/mg lipid (LPR 5).
(§2) Wt XylE, wt FucP, and the mutant proteins were reconstituted using overnight incubation in 400 mg/ml BioBeads (SM-2 Adsorbent Media, Bio-Rad) at 4 °C. After reconstitution, the samples were diluted to 2.5 mg/ml lipid concentration, frozen in liquid nitrogen, and stored at −80 °C. For wt LacY and mutant proteins, this procedure was not successful. We, therefore, applied the previously established n-octyl-β-D-glucoside dilution method (1:100) ([69]).
(§3) SSM measurements were performed as described ([20], [23]). After thawing the sample and sonication in a water bath, 30 μl of proteoliposomes (2.5 mg/ml lipid at LPR 5) was allowed to adsorb for 1 to 2 h to an octadecanethiol/phosphatidylcholine hybrid bilayer on a gold surface (the sensor).
(§4) For measurements, a single solution exchange configuration ([23]) was employed that consisted in three phases of 0.5 s duration each: Flow of nonactivating solution (NA), activating solution (A), and nonactivating solution (NA). Only the activating solution contained the sugar. When pH dependence is determined, pH of NA and A solutions during one experiment are kept constant. Between experiments using different pH values, the sensor was incubated at the new pH for 3 min to equilibrate the intraliposomal pH.
(§5) Instruments with different time resolution were used as required. […] Currents were recorded throughout the entire time and amplified with a current amplifier set to a gain of […] and a rise time of 10 ms (low time-resolution set up) or 3 ms (high time-resolution set up).
(§6) All NA solutions were buffered in 100 mM KPi at a given pH value. NA solutions used with LacY contained 1 mM DTT in addition. A solutions were made from NA solutions by adding the respective sugar at a given concentration to induce the symport reaction. Sugar concentration jumps initiated sugar-proton symport, and charge transfer was measured by capacitive coupling. Therefore, only transient currents were recorded.
(§7) Each dataset represented with error bars was generated by performing the same experiment on multiple sensors (n ≥ 3). Error bars represent standard deviations of the average value. When peak currents are averaged across sensors, datasets are normalized before averaging. When the protein catalyzes transport and PSS currents are negligible, the peak current of the transient represents a good approximation of the current generated by the steady-state symport activity of the transporter. In most cases, peak currents have been used to derive kinetic and thermodynamic parameters according to the equations given in Figure 2 (KM, Imax ∼ Vmax, Hill coefficient n), Figure 4 (KD and rate constants for sugar binding kon and release koff), and Figure 6 (pKa for proton binding and pKb for proton release). Reconstruction of transporter currents for analysis of biphasic currents has been performed as described previously ([70]). This is required when transport and PSS currents are observed at the same time.

[2] = biological target: T2, D27N XylE (Escherichia coli, UniProt P0AGF4, D27N); assay: SSM-based electrophysiology, transport-deficient mutant D27N XylE (PSS currents, electrogenic binding); format: biochemical
T2 construct: made in house; host or cells: E. coli BL21 DE3
T2 sequence (P0AGF4 whole entry D27N): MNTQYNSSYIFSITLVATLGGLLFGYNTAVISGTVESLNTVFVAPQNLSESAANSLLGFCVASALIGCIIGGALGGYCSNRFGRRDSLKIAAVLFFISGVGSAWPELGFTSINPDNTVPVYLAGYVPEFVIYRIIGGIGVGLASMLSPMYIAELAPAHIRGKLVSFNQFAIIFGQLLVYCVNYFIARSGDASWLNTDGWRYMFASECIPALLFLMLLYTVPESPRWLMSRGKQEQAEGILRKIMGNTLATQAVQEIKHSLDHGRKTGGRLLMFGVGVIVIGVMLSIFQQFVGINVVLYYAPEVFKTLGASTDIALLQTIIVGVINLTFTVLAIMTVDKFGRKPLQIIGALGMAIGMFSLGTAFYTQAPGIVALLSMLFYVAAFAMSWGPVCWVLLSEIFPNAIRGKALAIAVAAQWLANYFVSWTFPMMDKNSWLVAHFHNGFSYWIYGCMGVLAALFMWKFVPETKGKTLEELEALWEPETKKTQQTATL
Procedure: as §1, §2, §3, §4, §5, §6, §7

[3] = biological target: T3, D46N FucP (Escherichia coli, UniProt P11551, D46N); assay: SSM-based electrophysiology, transport-deficient mutant D46N FucP (PSS currents); format: biochemical
T3 construct: made in house; host or cells: E. coli BL21 DE3
T3 sequence (P11551 whole entry D46N): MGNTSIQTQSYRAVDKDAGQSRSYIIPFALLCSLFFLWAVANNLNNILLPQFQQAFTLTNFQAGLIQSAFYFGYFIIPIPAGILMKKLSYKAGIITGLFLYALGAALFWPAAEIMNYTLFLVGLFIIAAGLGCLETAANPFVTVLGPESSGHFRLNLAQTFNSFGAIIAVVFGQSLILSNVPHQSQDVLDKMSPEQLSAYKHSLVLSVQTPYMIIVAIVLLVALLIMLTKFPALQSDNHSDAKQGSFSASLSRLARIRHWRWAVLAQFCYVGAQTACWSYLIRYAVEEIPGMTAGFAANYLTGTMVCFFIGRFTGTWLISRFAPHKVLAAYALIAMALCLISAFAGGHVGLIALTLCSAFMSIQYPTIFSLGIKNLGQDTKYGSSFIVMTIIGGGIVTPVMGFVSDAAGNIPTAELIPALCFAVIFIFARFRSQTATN
Procedure: as §1, §2, §3, §4, §5, §6, §7

[4] = biological target: T4, Q175I/L297F XylE (Escherichia coli, UniProt P0AGF4, L297F/Q175I); assay: biochemical
T4 construct: made in house; host or cells: E. coli BL21 DE3
T4 sequence (P0AGF4 whole entry Q175I/L297F): as the sequence (P0AGF4 whole entry D27N) above, with N27D, Q175I, L297F counted along it
Procedure: as §1
as §2, with “For wt LacY and mutant proteins, this procedure was not successful.” left out
as §3, §4, §5, §6, §7

[5] = tested on: XylE; details: uptake and competition-uptake assays; cited from earlier work
[6] = biological target: XylE; design: method as in PMID 23075985; details: read-out: KD, isothermal titration calorimetry; cited from earlier work
[7] = biological target: wt XylE (Escherichia coli, UniProt P0AGF4); assay: biochemical; design: made in house; host or cells: E. coli BL21 DE3
Sequence of wt XylE (P0AGF4 whole entry): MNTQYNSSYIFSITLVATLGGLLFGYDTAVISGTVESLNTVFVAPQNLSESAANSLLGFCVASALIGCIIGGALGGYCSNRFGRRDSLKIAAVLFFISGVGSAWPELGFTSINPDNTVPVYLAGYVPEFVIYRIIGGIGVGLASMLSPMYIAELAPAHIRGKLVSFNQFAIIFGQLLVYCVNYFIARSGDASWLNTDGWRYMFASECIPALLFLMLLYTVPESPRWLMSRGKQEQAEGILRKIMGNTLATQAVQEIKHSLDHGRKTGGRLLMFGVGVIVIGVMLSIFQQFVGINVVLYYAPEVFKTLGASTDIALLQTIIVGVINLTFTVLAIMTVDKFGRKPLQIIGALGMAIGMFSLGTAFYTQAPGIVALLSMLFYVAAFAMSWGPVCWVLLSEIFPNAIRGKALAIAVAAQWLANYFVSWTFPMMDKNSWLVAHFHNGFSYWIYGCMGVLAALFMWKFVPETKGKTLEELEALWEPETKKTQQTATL
Procedure: as §1, §2, §3, §4, §5, §6, §7

[8] = tested on: C154G/V331C LacY; design: method as in PMID 19383792, PMID 17176050; details: stopped flow; cited from earlier work
[9] = biological target: T5, wt LacY (Escherichia coli, UniProt P02920); assay: SSM-based electrophysiology, proteoliposomes with wt LacY; format: biochemical; details: pH 7.6
T5 construct: made in house; host or cells: E. coli XL1-Blue
T5 sequence (P02920 1-417): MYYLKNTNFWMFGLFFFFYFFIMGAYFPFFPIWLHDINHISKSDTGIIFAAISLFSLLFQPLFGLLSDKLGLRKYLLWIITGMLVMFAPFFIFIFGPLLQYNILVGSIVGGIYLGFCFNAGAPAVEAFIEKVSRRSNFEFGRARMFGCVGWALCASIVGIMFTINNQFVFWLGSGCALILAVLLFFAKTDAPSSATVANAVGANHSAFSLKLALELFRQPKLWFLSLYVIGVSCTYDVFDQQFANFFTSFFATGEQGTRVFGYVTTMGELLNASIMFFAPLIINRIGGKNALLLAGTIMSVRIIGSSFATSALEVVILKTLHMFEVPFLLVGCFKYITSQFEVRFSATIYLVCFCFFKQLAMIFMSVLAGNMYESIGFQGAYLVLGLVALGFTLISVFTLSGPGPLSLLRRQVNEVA
Procedure: as §1, §2, §3, §4, §5, §6, §7

[10] = biological target: T6, E325A LacY (Escherichia coli, UniProt P02920, E325A); assay: SSM-based electrophysiology, transport-deficient mutant E325A LacY (PSS currents, electrogenic binding); format: biochemical
T6 construct: made in house; host or cells: E. coli XL1-Blue
T6 sequence (P02920 whole entry E325A): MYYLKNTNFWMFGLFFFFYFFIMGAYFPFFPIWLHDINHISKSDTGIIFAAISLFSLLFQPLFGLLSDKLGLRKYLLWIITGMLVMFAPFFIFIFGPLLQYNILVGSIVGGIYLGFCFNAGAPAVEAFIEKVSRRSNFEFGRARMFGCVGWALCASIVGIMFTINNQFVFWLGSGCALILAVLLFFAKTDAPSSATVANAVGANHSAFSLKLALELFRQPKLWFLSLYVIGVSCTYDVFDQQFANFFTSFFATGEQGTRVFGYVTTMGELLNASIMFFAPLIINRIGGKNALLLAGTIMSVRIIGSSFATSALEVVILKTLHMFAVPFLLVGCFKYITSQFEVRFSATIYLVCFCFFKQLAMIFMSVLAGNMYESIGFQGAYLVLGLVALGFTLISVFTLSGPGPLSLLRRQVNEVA
Procedure: as §1, §2, §3, §4, §5, §6, §7

[11] = reconstructed transporter currents, alkaline range, double titration
[12] = EC50,1, double Michaelis–Menten fit, peak currents
[13] = EC50,2, double Michaelis–Menten fit, peak currents

Q: With `OC[C@@H]1OC(O)[C@@H](O)[C@H](O)[C@@H]1O` (stereo partly drawn) [L-galactose] as the compound, how does the “Imax in percent of Imax of the main substrate (L-fucose)” value [1] read?
A: 123 ± 8%

Q: For `OC[C@H]1OC(O)[C@H](O)[C@@H](O)[C@@H]1O` (stereo partly drawn) [D-glucose], which Kd ([2]; KD (mM) mut, pH 7.6, hyperbolic fit of peak currents, in Table 3 headed EC50) is on record?
A: 1.9 ± 0.35 mM

Q: What about the Kd ([2]; KD from fit of concentration-dependent kobs, pH 7.6) of the same compound?
A: 0.67 ± 0.1 mM

Q: What about the “Imax (nA) slow component” value ([2]; pH 7.6) of the same compound?
A: <0.05 nA

Q: What about the “Q (pC) Mut, transferred charge” value ([2]; pH 7.6, 30 mM substrate) of the same compound?
A: 1.1 ± 0.3 (pH 7.6) pC

Q: And the “IPeak (pA) fast component” value ([2]; pH 7.6, saturating substrate)?
A: 60 pA and 60 ± 25 pA

Q: And the “kobs (s^−1) mut” value ([2]; saturating substrate (30 mM), kobs = 1/τ, monoexponential fit, limited by time resolution)?
A: 300 ± 40 s⁻¹

Q: And the “induction of PSS currents” value [3]?
A: do not generate PSS currents

Q: And the “IPeak (pA) fast component” value ([4]; pH 7.6, saturating substrate)?
A: 240 pA and 240 ± 40 pA

Q: And the pKa ([4]; reconstructed transporter currents, acidic range)?
A: 4.6 ± 0.1

Q: And the pKb1 [4, 11]?
A: ~7.5 and 7.3 ± 0.1

Q: And the pKb2 [4, 11]?
A: 9.8 ± 0.2

Q: And the “transport of radioactively labeled sugar” value [5]?
A: not transported

Q: What about the Kd [6] of the same compound?
A: 770 µM

Q: What about the Kb [7] of the same compound?
A: 0.0398 nM

Q: What about the EC50 ([7]; EC50,1, double Michaelis–Menten fit, pH 7.6, peak currents) of the same compound?
A: 160 ± 10 µM

Q: What about the EC50 ([7]; EC50,2, double Michaelis–Menten fit, pH 7.6, peak currents) of the same compound?
A: 6500 ± 900 µM

Q: And the EC50 ([7]; EC50, Hill fit, pH 7.6, peak currents, Hill equation)?
A: 920 ± 120 µM

Q: What about the EC50 ([7]; apparent EC50 (half saturation constant, Michaelis–Menten equation; KM column), pH 7.6, D-glucose-induced slow PSS current, not transport) of the same compound?
A: 380 µM and 400 µM

Q: And the “Q (pC) wt, PSS transferred charge” value ([7]; pH 3.0, 30 mM substrate)?
A: 2.5 ± 1 (pH 3.0) pC

Q: And the “slow peak current amplitude compared with D-xylose-induced currents” value ([7]; pH 7.0)?
A: 26%

Q: What about the “Imax in percent of Imax of the main substrate (D-xylose)” value ([7]; pH 7.6) of the same compound?
A: 26% and 26 ± 5%

Q: What about the “Imax (nA) slow component” value ([7]; pH 7.6, hyperbolic fit of peak current) of the same compound?
A: 0.47 ± 0.1 nA

Q: What about the “n (Hill coefficient)” value ([7]; pH 7.6, peak currents, Hill equation) of the same compound?
A: 0.57 ± 0.03

Q: What about the “IPeak (pA) fast component” value ([7]; pH 7.6, saturating substrate, transport current given as upper limit) of the same compound?
A: <470 pA

Q: And the pKa ([7]; pH-dependent peak currents, acidic range)?
A: 4.7 ± 0.1

Q: With 6-Deoxy-D-glucose as the compound, how does the “induction of currents (substrate identification)” value ([7]; pH 7.0) read?
A: generated signals identifying them as substrates

Q: And the “Imax in percent of Imax of the main substrate (D-xylose)” value ([7]; pH 7.6)?
A: 35 ± 5%

Q: What about the Km ([7]; pH 7.6, minor substrate, peak currents, low time-resolution set up, read-out: KM (mM) Michaelis–Menten equation) of the same compound?
A: 0.2 ± 0.05 mM

Q: For `OC1OC[C@@H](O)[C@@H](O)[C@@H]1O` (stereo partly drawn) [D-arabinose], which EC50 [1, 12] is on record?
A: 820 ± 530 µM

Q: And the EC50 [1, 13]?
A: 38000 ± 9000 µM

Q: And the “Imax in percent of Imax of the main substrate (L-fucose)” value [1]?
A: 132 ± 13%

Q: And the “n (Hill coefficient)” value ([1]; peak currents, Hill equation)?
A: 0.62 ± 0.04

Q: Which results are given for `O=[N+]([O-])c1ccc(OC2O[C@H](CO)[C@H](O)[C@H](O)[C@H]2O)cc1` (stereo partly drawn) [p-nitrophenyl-D-galactopyranoside]?
A: rate constant of the binding reaction [8]: 10^6 M^−1 s^−1; rate constant of the following conformational changes [8]: 250 s⁻¹

Q: Which EC50 [9, 12] does the source give for `OC[C@H]1O[C@@H](O[C@@H]2[C@@H](CO)OC(O)(CO)[C@H]2O)[C@H](O)[C@@H](O)[C@H]1O` (mixture of isomers) [Lactulose] here?
A: 880 ± 100 µM

Q: And the EC50 [9, 13]?
A: 90000 ± 42000 µM

Q: And the “Imax in percent of Imax of the main substrate (D-lactose)” value [9]?
A: 71 ± 8%

Q: What about the “n (Hill coefficient)” value ([9]; peak currents, Hill equation) of the same compound?
A: 0.55 ± 0.08

Q: And the Kd [10]?
A: 5000 ± 600 µM

Q: What about the “Q (pC) Mut, transferred charge” value ([10]; pH 7.6, saturating substrate (100 mM D-lactose, lactulose; 5 mM TDG)) of the same compound?
A: 2.2 ± 0.5 (pH 7.6) pC

Q: What about the “kobs (s^−1) mut” value ([10]; saturating substrate (100 mM D-lactose, lactulose; 5 mM TDG), kobs = 1/τ, limited by time resolution) of the same compound?
A: 380 ± 40 s⁻¹
